Assay results published in patent publication US20050245738A1, “Stable bioavailable crystalline form or cefdinir and a process for the preparation thereof” (LUPIN LTD, priority 2004, published 2005).

Columns and labels:
[1] = Dissolution rate in 0.07 N Hydrochloric acid; format: physicochemical
[2] = Accelerated storage stability of cefdinir, Aluminum pouch, 40 ± 2° C., Rh 75 ± 5%; format: physicochemical
[3] = 0.07 N Hydrochloric acid, cited from earlier work
[4] = accelerated stability tests; cited from earlier work
[5] = After 30 days at 40 ± 2° C., Rh 75 ± 5%
[6] = After 60 days at 40 ± 2° C., Rh 75 ± 5%
[7] = After 180 days at 40 ± 2° C., Rh 75 ± 5%

C=CC1=C(C(=O)O)N2C(=O)[C@@H](NC(=O)/C(=N\O)c3csc(N)n3)[C@H]2SC1 [(Z)-7-[2-(2-amino-4-thiazolyl)-2-hydroxyiminoacetamido]-3-vinyl-3-cephem-4-carboxylic acid]
IDR: Intrinsic Dissolution Rate [1]: 0.1831 mg/cm^2/min | dissolution rate compared with reference “Crystal A” and material of U.S. Application No. 2003/0204082 A [1]: superior | Dissolution Profile ([1]; 15 Mins): 4.15 mg/cm^2 | Dissolution Profile ([1]; 30 Mins): 8.26 mg/cm^2 | Dissolution Profile ([1]; 45 Mins): 10.31 mg/cm^2 | Dissolution Profile ([1]; 60 Mins): 14.66 mg/cm^2 | Dissolution Profile ([1]; 75 Mins): 16.29 mg/cm^2 | Dissolution Profile ([1]; 90 Mins): 19.47 mg/cm^2 | Dissolution Profile ([1]; 105 Mins): 22.17 mg/cm^2 | Dissolution Profile ([1]; 120 Mins): 23.01 mg/cm^2 | thermal stability ([2]; 40° C. (75% Rh)): excellent thermal stability | Assay by HPLC (% on Dry Basis) [2, 5]: 97.92 % on Dry Basis | Water Content (%) [2, 5]: 7.46% | pH (1% Aqueous suspension) [2, 5]: 3.46 | Assay by HPLC (% on Dry Basis) [2, 6]: 97.38 % on Dry Basis | Water Content (%) [2, 6]: 7.27% | pH (1% Aqueous suspension) [2, 6]: 3.45 | Assay by HPLC (% on Dry Basis) [2, 7]: 96.65 % on Dry Basis | Water Content (%) [2, 7]: 7.60% | pH (1% Aqueous suspension) [2, 7]: 3.55 | Assay by HPLC (% on Dry Basis) ([2]; Initial): 98.37 % on Dry Basis | Water Content (%) ([2]; Initial): 7.05% | pH (1% Aqueous suspension) ([2]; Initial): 3.40

C=CC1=C(C(=O)O)N2C(=O)[C@@H](NC(=O)/C(=N\O)c3csc(N)n3)[C@H]2SC1 [Cefdinir Prepared as per the Method of Dobfar's US Applicati] [reference compound]
solubility compared with reference “Crystal A” ([3]; after the first hour): more soluble | dissolution rate compared with reference “Crystal A” ([3]; initially): initially slower | IDR: Intrinsic Dissolution Rate [1]: 0.1392 mg/cm^2/min | Dissolution Profile ([1]; 15 Mins): 4.59 mg/cm^2 | Dissolution Profile ([1]; 30 Mins): 6.01 mg/cm^2 | Dissolution Profile ([1]; 45 Mins): 8.70 mg/cm^2 | Dissolution Profile ([1]; 60 Mins): 10.42 mg/cm^2 | Dissolution Profile ([1]; 75 Mins): 12.23 mg/cm^2 | Dissolution Profile ([1]; 90 Mins): 14.94 mg/cm^2 | Dissolution Profile ([1]; 105 Mins): 16.79 mg/cm^2 | Dissolution Profile ([1]; 120 Mins): 19.02 mg/cm^2 | stability compared with reference “Crystal A” [4]: at least equal to that of the reference “Crystal A”
